# Assay results published in patent US4526989A, “1,4-Bis (substituted-amino)-5,8-dihydroxy-anthraquinones and leuco bases thereof” (priority 1979, dated 1985).
# Where two headings read alike, the source gives them in different places.
# Assays:
# [1] = test system: lymphocytic leukemia P388; experiment: Lymphocytic leukemia P388 test (intraperitoneal administration); assay type: in vivo, DBA/2 mice; conditions: for response vs control in vivo at 12 mg/kg / response vs control in vivo at 25 mg/kg / response vs control in vivo at 50 mg/kg / response vs control in vivo at 100 mg/kg / response vs control in vivo at 0.04 mg/kg / response vs control in vivo at 0.19 mg/kg / response vs control in vivo at 6.2 mg/kg / response vs control in vivo at 0.09 mg/kg / response vs control in vivo at 0.39 mg/kg / response vs control in vivo at 0.78 mg/kg / response vs control in vivo at 1.5 mg/kg / response vs control in vivo at 3.1 mg/kg / response vs control in vivo at 12.5 mg/kg / response vs control in vivo at 200 mg/kg: Mus musculus, P388, ip, read-out: T/C × 100
# In short: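 DBA/2 mice, single sex, 5-6 per group, inoculated i.p. with 10^6 P388 leukemia cells. Compounds given i.p. at various doses on days 1, 5 and 9; survival followed 30 days, reporting median survival time and treated/control (T/C) survival ratio.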
# melanotic melanoma B16 = experiment: Melanotic Melanoma B16 test; assay type: in vivo, C57BC/6 mice
# Description: The animals used are C57BC/6 mice, all of the same sex, weighing a minimum of 17 g. and all within a 3-g. weight range. There are normally 10 animals per test group. A one-gram portion of melanotic melanoma B16 tumor is homogenized in 10 ml. of cold balanced salt solution and a 0.5-ml. aliquot of the homogenate is implanted intraperitoneally into each of the test mice. The test compounds are administered intraperitoneally on days one through 9 (relative to tumor inoculation) at various doses. The animals are weighed and survivors are recorded on a regular basis for 60 days. The median survival time and the ratio of survival time for treated (T)/control (C) animals are calculated. […] The criterion for efficacy is T/C×100≥125%.
# [2] = 12 mg./kg. i.p., days 1, 5 and 9
# [3] = 25 mg./kg. i.p., days 1, 5 and 9
# [4] = 50 mg./kg. i.p., days 1, 5 and 9
# [5] = 100 mg./kg. i.p., days 1, 5 and 9
# [6] = 12 mg./kg. i.p., days 1, 5 and 9, efficacy ≥125%
# [7] = 25 mg./kg. i.p., days 1, 5 and 9, efficacy ≥125%
# [8] = 50 mg./kg. i.p., days 1, 5 and 9, efficacy ≥125%
# [9] = 100 mg./kg. i.p., days 1, 5 and 9, efficacy ≥125%
# [10] = 6 mg./kg. i.p., days 1 through 9
# [11] = 12 mg./kg. i.p., days 1 through 9
# [12] = 25 mg./kg. i.p., days 1 through 9
# [13] = Mus musculus, ip, 6 mg./kg. i.p., days 1 through 9, efficacy ≥125%, read-out: T/C × 100
# [14] = Mus musculus, ip, 12 mg./kg. i.p., days 1 through 9, efficacy ≥125%, read-out: T/C × 100
# [15] = Mus musculus, ip, 25 mg./kg. i.p., days 1 through 9, efficacy ≥125%, read-out: T/C × 100
# [16] = 0.04 mg./kg. i.p., days 1, 5 and 9
# [17] = 0.09 mg./kg. i.p., days 1, 5 and 9
# [18] = 0.19 mg./kg. i.p., days 1, 5 and 9
# [19] = 0.39 mg./kg. i.p., days 1, 5 and 9
# [20] = 0.78 mg./kg. i.p., days 1, 5 and 9
# [21] = 1.5 mg./kg. i.p., days 1, 5 and 9
# [22] = 3.1 mg./kg. i.p., days 1, 5 and 9
# [23] = 6.2 mg./kg. i.p., days 1, 5 and 9
# [24] = 12.5 mg./kg. i.p., days 1, 5 and 9
# [25] = 0.09 mg./kg. i.p., days 1, 5 and 9, efficacy ≥125%
# [26] = 0.39 mg./kg. i.p., days 1, 5 and 9, efficacy ≥125%
# [27] = 0.78 mg./kg. i.p., days 1, 5 and 9, efficacy ≥125%
# [28] = 1.5 mg./kg. i.p., days 1, 5 and 9, efficacy ≥125%
# [29] = 3.1 mg./kg. i.p., days 1, 5 and 9, efficacy ≥125%
# [30] = 12.5 mg./kg. i.p., days 1, 5 and 9, efficacy ≥125%
# [31] = 0.7 mg./kg. i.p., days 1 through 9
# [32] = 1.5 mg./kg. i.p., days 1 through 9
# [33] = 3 mg./kg. i.p., days 1 through 9
# [34] = Mus musculus, ip, 0.7 mg./kg. i.p., days 1 through 9, efficacy ≥125%, read-out: T/C × 100
# [35] = Mus musculus, ip, 1.5 mg./kg. i.p., days 1 through 9, efficacy ≥125%, read-out: T/C × 100
# [36] = Mus musculus, ip, 3 mg./kg. i.p., days 1 through 9, efficacy ≥125%, read-out: T/C × 100
# [37] = 6.2 mg./kg. i.p., days 1, 5 and 9, efficacy ≥125%
# [38] = 200 mg./kg. i.p., days 1, 5 and 9
# [39] = 200 mg./kg. i.p., days 1, 5 and 9, efficacy ≥125%
# [40] = 50 mg./kg. i.p., days 1 through 9
# [41] = Mus musculus, ip, 50 mg./kg. i.p., days 1 through 9, efficacy ≥125%, read-out: T/C × 100
SMILES,"Median Survival Time [1, 3] [days]","Median Survival Time [1, 4] [days]","Median Survival Time [1, 5] [days]","response vs control in vivo at 25 mg/kg [1, 7] [%]","response vs control in vivo at 50 mg/kg [1, 8] [%]","response vs control in vivo at 100 mg/kg [1, 9] [%]",Median Survival Time (melanotic melanoma B16; [10]) [days],Median Survival Time (melanotic melanoma B16; [11]) [days],response vs control in vivo at 6 mg/kg (melanotic melanoma B16; [13]) [%],response vs control in vivo at 12 mg/kg (melanotic melanoma B16; [14]) [%],"Median Survival Time [1, 21] [days]","Median Survival Time [1, 22] [days]","Median Survival Time [1, 23] [days]","Median Survival Time [1, 24] [days]","response vs control in vivo at 1.5 mg/kg [1, 28] [%]","response vs control in vivo at 3.1 mg/kg [1, 29] [%]","response vs control in vivo at 12.5 mg/kg [1, 30] [%]",Median Survival Time (melanotic melanoma B16; [32]) [days],Median Survival Time (melanotic melanoma B16; [33]) [days],response vs control in vivo at 1.5 mg/kg (melanotic melanoma B16; [35]) [%],also measured
"O=C1c2c(O)ccc(O)c2C(=O)c2c(NCCN3CCCC3)ccc(NCCN3CCCC3)c21 [1,4-Bis[2-(1-pyrrolidinyl)ethylamino]-5,8-dihydroxyanthraquinone]",21.0,23.0,24.0,191,209,218,22.0,22.0,137,137,,,,,,,,,,,"Median Survival Time [1, 2]: 18.0 days; response vs control in vivo at 12 mg/kg [1, 6]: 164%; Median Survival Time (melanotic melanoma B16; [12]): 24.5 days; response vs control in vivo at 25 mg/kg (melanotic melanoma B16; [15]): 153%"
"Cl.Cl.O=C1c2c(O)ccc(O)c2C(=O)c2c(NCCNCCO)ccc(NCCNCCO)c21 [1,4-Bis[2-(2-hydroxyethylamino)ethylamino]-5,8-dihydroxyanthraquinone Dihydrochloride]",,,,,,,15.0,11.0,,73,> 29.0,22.0,20.0,13.0,> 290,220,130,> 34.0,> 28.5,> 227,"Median Survival Time [1, 16]: 20.0 days; Median Survival Time [1, 17]: 21.0 days; Median Survival Time [1, 18]: 25.0 days; Median Survival Time [1, 19]: 27.0 days; Median Survival Time [1, 20]: > 29.0 days; response vs control in vivo at 0.04 mg/kg [1]: 200%; response vs control in vivo at 0.19 mg/kg [1]: 250%; response vs control in vivo at 6.2 mg/kg [1]: 200%; response vs control in vivo at 0.09 mg/kg [1, 25]: 210%; response vs control in vivo at 0.39 mg/kg [1, 26]: 270%; response vs control in vivo at 0.78 mg/kg [1, 27]: > 290%; Median Survival Time (melanotic melanoma B16; 0.3 mg./kg. i.p., days 1 through 9): 34.0 days; Median Survival Time (melanotic melanoma B16; [31]): > 34.0 days; response vs control in vivo at 6 mg/kg (melanotic melanoma B16; Mus musculus, ip, read-out: T/C × 100): 100%; response vs control in vivo at 0.3 mg/kg (melanotic melanoma B16; Mus musculus, ip, 0.3 mg./kg. i.p., days 1 through 9, efficacy ≥125%, read-out: T/C × 100): 227%; response vs control in vivo at 0.7 mg/kg (melanotic melanoma B16; [34]): > 227%; response vs control in vivo at 3 mg/kg (melanotic melanoma B16; [36]): > 190%"
"CNCCNC1=C2C(=O)c3c(O)ccc(O)c3C(=O)C2=C(NCCNC)CC1 [Leuco-1,4-bis[2-(methylamino)ethylamino]-5,8-dihydroxyanthraquinone]",19.0,6.0,,173,55,,32.5,28.0,203,175,13.0,15.0,21.0,19.0,118,136,173,36.0,31.0,225,"response vs control in vivo at 6.2 mg/kg [1, 37]: 191%; Median Survival Time (melanotic melanoma B16; [31]): 27.5 days; response vs control in vivo at 0.7 mg/kg (melanotic melanoma B16; [34]): 172%; response vs control in vivo at 3 mg/kg (melanotic melanoma B16; [36]): 194%"
"O=C1C2=C(NCCN3CCCC3)CCC(NCCN3CCCC3)=C2C(=O)c2c(O)ccc(O)c21 [Leuco-1,4-bis[2-(1-pyrrolidinyl)ethylamino]-5,8-dihydroxyanthraquinone]",15.0,16.0,19.0,136,145,173,,21.0,,131,,,,,,,,,,,"Median Survival Time [1, 38]: 23.0 days; response vs control in vivo at 200 mg/kg [1, 39]: 209%; Median Survival Time (melanotic melanoma B16; [12]): 22.0 days; Median Survival Time (melanotic melanoma B16; [40]): 23.0 days; response vs control in vivo at 25 mg/kg (melanotic melanoma B16; [15]): 137%; response vs control in vivo at 50 mg/kg (melanotic melanoma B16; [41]): 144%"
"CCN(CC)CCNC1=C2C(=O)c3c(O)ccc(O)c3C(=O)C2=C(NCCN(CC)CC)CC1 [Leuco-1,4-bis[(2-diethylaminoethyl)amino]-5,8-dihydroxyanthraquinone]",13.0,15.0,17.0,137,158,179,,,,,,,,,,,,,,,"Median Survival Time [1, 2]: 12.0 days; Median Survival Time [1, 38]: 17.0 days; response vs control in vivo at 12 mg/kg [1, 6]: 126%; response vs control in vivo at 200 mg/kg [1, 39]: 179%; Median Survival Time (melanotic melanoma B16; [40]): 23.0 days; response vs control in vivo at 50 mg/kg (melanotic melanoma B16; [41]): 139%"
"O=C1C2=C(NCCNCCO)CCC(NCCNCCO)=C2C(=O)c2c(O)ccc(O)c21 [Leuco-1,4-bis[2-(2-hydroxyethylamino)ethylamino]-5,8-dihydroxyanthraquinone]",12.0,,,114,,,9.5,,59,,> 30.0,26.0,23.0,23.5,> 286,248,224,30.0,20.5,187,"Median Survival Time [1, 16]: 18.5 days; Median Survival Time [1, 17]: 21.5 days; Median Survival Time [1, 18]: 21.5 days; Median Survival Time [1, 19]: 22.0 days; Median Survival Time [1, 20]: 28.0 days; response vs control in vivo at 0.19 mg/kg ([1]; 0.19 mg./kg. i.p., days 1, 5 and 9, efficacy ≥125%): 205%; response vs control in vivo at 0.04 mg/kg ([1]; 0.04 mg./kg. i.p., days 1, 5 and 9, efficacy ≥125%): 176%; response vs control in vivo at 0.09 mg/kg [1, 25]: 205%; response vs control in vivo at 0.39 mg/kg [1, 26]: 209%; response vs control in vivo at 0.78 mg/kg [1, 27]: 267%; response vs control in vivo at 6.2 mg/kg [1, 37]: 219%; Median Survival Time (melanotic melanoma B16; 0.37 mg./kg. i.p., days 1 through 9): 22.0 days; Median Survival Time (melanotic melanoma B16; 0.75 mg./kg. i.p., days 1 through 9): 28.5 days; response vs control in vivo at 0.37 mg/kg (melanotic melanoma B16; Mus musculus, ip, 0.37 mg./kg. i.p., days 1 through 9, efficacy ≥125%, read-out: T/C × 100): 137%; response vs control in vivo at 0.75 mg/kg (melanotic melanoma B16; Mus musculus, ip, 0.75 mg./kg. i.p., days 1 through 9, efficacy ≥125%, read-out: T/C × 100): 178%; response vs control in vivo at 3 mg/kg (melanotic melanoma B16; [36]): 128%"
